From article PMC5054060, “Probing the nucleotide-binding activity of a redox sensor: two-component regulatory control in chloroplasts” (Photosynthesis Research, 2016)

Target: T1, CSK_T (truncated Arabidopsis CSK, amino acids 301 to 611) (Arabidopsis thaliana, UniProt F4HVG8)
T1 sequence (F4HVG8 301-611): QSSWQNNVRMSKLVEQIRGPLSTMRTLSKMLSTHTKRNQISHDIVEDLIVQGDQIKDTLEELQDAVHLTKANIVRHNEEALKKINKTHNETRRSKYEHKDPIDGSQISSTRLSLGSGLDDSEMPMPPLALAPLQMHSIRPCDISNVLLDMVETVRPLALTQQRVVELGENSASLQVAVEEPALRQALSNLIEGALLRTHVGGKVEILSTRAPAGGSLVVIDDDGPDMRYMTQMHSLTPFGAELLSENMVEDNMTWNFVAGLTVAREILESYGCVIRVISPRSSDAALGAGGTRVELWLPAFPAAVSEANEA
Experiment: displacement of TNP-ATP fluorescence, […] nm
Conditions: 10 mM NaCl, 10 mM Tris-HCl pH 8; 1 µM TNP-ATP; 2 µM protein (figure legend: 1 µM); competitive displacement, no metal added; read-out: Binding affinity / ATP (mm)

Kd: 4.97 mM
Compound: Nc1ncnc2c1ncn2[C@@H]1O[C@H](COP(=O)(O)OP(=O)(O)OP(=O)(O)O)[C@@H](O)[C@H]1O [ATP]
